From patent publication US8440643B2, “Inhibitors of beta-lactamase” (MethylGene Inc., priority 2006, dated 2013)

Test system: Ps. aeruginosa, CL 5701
Assay: Imipenem MIC against Ps. aeruginosa CL 5701
Type: cell-based
Settings: Pseudomonas aeruginosa, CL5701, imipenem alone
Text: The assay determines the concentration of a β-lactamase inhibitor required to reduce the MIC of a β-lactam antibiotic by one-half, one-quarter, one-eighth, one-sixteenth and one-thirty-second against strains of bacteria normally resistant to the antibiotic in question. This is accomplished by titrating the inhibitor (BLI=beta-lactamase inhibitor) in a serial dilution across a microtiter plate while at the same time titrating the antibiotic (AB) in a serial dilution down the microtiter plate and then inoculating the plate with the bacterial strain in question and allowing the bacteria to grow up overnight. Each well in this microplate checkerboard contains a different combination of concentrations of the inhibitor and the antibiotic allowing a full determination of any synergy between the two.
• 1. All wells in rows B-H of MIC 2000 microtiter plates are filled with 100 μL of MHBII+1% DMSO (dimethyl sulfoxide). • 2. All wells in row A of MIC 2000 microtiter plates are filled with 100 μL of 2×MHBII+2% DMSO. • 3. […] Plates are left at 37° C. for about 20 hours and scored for growth by eye. […]
Plates are scored for growth in each well. End points (MICs) where there is no growth in each row are determined and the concentrations of AB and the test BLI at each of these growth negative wells are then used to determine levels of synergy. […]

MIC: 20 µg/mL
SMILES: C[C@@H](O)[C@H]1C(=O)N2C(C(=O)O)=C(SCCN=CN)C[C@H]12 [Imipenem]
